Assay results published in patent publication US4835157A, “Thieno- and furopyrimidine-2,4-dione piperidine derivatives as serotonin antagonists and alpha adrenergic blocking agents” (Ortho Pharmaceutical Corporation, priority 1988, dated 1989).
Where two headings read alike, the source gives them in different places.

Tests used:
5HT1A receptor = target: T1, 5HT1A receptor (Rattus norvegicus, UniProt P19327); assay: Brain Serotonin (5HT1A) radioreceptor Assay (3H-8-OH DPAT displacement, rat frontal cortex membranes); format: binding
T1 construct: Membrane fragments were prepared from prefrontal cortex; from tissue; host or cells: prefrontal/frontal cortex of female rats (about 150 g), membrane fragments
T1 sequence (P19327 1-422): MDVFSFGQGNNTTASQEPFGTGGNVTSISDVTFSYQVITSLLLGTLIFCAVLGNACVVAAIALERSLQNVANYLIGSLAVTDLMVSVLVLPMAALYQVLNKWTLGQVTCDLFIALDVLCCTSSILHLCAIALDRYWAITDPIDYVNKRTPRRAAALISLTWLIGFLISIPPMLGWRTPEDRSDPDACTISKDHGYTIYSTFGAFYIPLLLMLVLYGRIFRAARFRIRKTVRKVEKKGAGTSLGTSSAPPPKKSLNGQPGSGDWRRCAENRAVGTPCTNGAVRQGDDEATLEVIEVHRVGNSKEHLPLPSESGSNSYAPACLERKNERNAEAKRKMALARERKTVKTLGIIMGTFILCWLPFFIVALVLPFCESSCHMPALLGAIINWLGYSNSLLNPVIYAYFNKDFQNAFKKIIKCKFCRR
Description: Brain Serotonin (5HT1A) radioreceptor Assay
The text objects of this procedure were rat frontal cortex membranes. Membrane fragments were prepared from prefrontal cortex disected from brains obtained from female rats (≈150 g). The 5HT1A sites were labeled with ^3 H-8-OH dipropylaminotetralin (8-OH-DPAT). Membrane fragments, ^3 H-8-OH DPAT, TRIS buffer (pH 7.4) and unlabeled compound were incubated for 10 minutes at 37° C. and then for 10 minutes at 4° C. Separation of bound from unbound ^3 H-8-OH DPAT was performed by vacuum filtration on a glass fiber disc. The ability of a compound to compete with ^3 H-8-OH DPAT for binding sites is a measure of the affinity of the compound for the 5HT1A receptor. Specific binding was determined by the difference between total counts bound and the counts bound in the presence of […] 5-hydroxytryptamine.

serotonin receptors = assay: Inhibition of 5-HTP-Induced Head Twitching; format: in vivo; conditions: male CD1 mice; for Inhibit. of 5-HTP-Head Twitch ED50: 5-HTP 160 mg/kg i.v. after one hour
Description: Inhibition of 5-HTP-Induced Head Twitching
This test detects compounds with antagonistic activity of serotonin receptors in vivo, and is a modified procedure of Corne, Pickering and Warner, Brit. J. Pharmacol. 20, 106 (1963). Groups of male CD1 mice were fasted overnight but allowed water ad libitum. They were deprived of water during the course of the experiment. The mice were weighed and treated orally or parenterally with the test compound in a dose volume of 10 ml/kg. Doses of test substance were calculated based upon the active compound. Substances for oral administration were dissolved or suspended in a 0.5% aqueous methylcellulose (15 centipoises) vehicle containing 4 ml of Tween 80/l.
A dose of 160 mg/kg of L-5-hydroxytryptophan (5-HTP) was administered i.v. in a dose volume of 5 ml/kg after one hour. The test mouse was restrained in a rodent restrainer that allowed the tail to extend out the back. The tail was then placed in tepid (but not scalding) water for approximately 10 seconds to soften the skin and dilate the tail vein. A 1 ml syringe and 25 gauge (5/8 inch) needle was used to administer the 5-HTP solution into one of the lateral tail veins.
A timer was started after dosing with 5-HTP to the first animal of the test group. […] A head twitch involves the head, neck and ears and has the appearance of an exaggerated pinal reflex. The number of head twitches for each individual vehicle-treated mouse were recorded to establish a historical baseline.
The active compounds in the test block the twitch response (the response rated all or none).

[1] = test system: alpha1 adrenergic receptor; assay: Alpha1 Blockade in vivo (inhibition of phenylephrine pressor response); parameters: species or system spontaneously hypertensive rats (SHR); conditions: anesthetized, vagotomized SHR; i.v.
Description: The potency of these compounds as alpha1 adrenergic antagonists was determined using the following procedure: adult male spontaneously hypertensive rats (SHR) were anesthetized and bilaterally vagotomized. A carotid artery and jugular vein were cannulated for monitoring mean arterial blood pressure and drug administration, respectively. The percent inhibition of alpha1 adrenergic receptor activation was quantified by measuring pressor responses to phenylephrine before and after antagonist treatment. […] Compounds were tested to the limits of their solubility for intravenous administration.

5HT2 [2] = target: T2, 5HT2 (Rattus norvegicus, UniProt P14842); assay: 5HT2 Blockade in vivo (antagonism of 5HT induced pressor responses); parameters: Spontaneously hypertensive rats were anesthetized with sodium pentobarbital; from tissue; host or cells: whole animal: anesthetized spontaneously hypertensive rats (vasculature); species or system spontaneously hypertensive rats; conditions: for ED50: rat, iv, read-out: 5-HT-Induced Pressor Response ED50; for 5-HT-Induced Pressor Response ED50: anesthetized SHR, 5HT 100 μg/kg i.v., cumulative doses of antagonist
Description: Antagonism of 5HT induced pressor responses was used to assess 5HT2 blockade in vivo. Spontaneously hypertensive rats were anesthetized with sodium pentobarbital (50 mg/kg, i.p.). The right carotid artery and vein were cannulated for pressure recording and drug injection, respectively. The trachea was cannulated, the rat placed on a respirator and ventilated with room air at 50-60 breaths/minute. Rats were pretreated with prazosin hydrochloride (1 mg/kg, i.v., blous) and pentolinium tartrate (5 mg/kg, i.v., bolus). After 10 minutes equilibration, the rat was challenged with 5HT (100 μg/kg) which elevates mean arterial pressure (MAP) 60-100 mmHg; non-responsive rats were discarded.
After a baseline had been reestablished, bolus injections of 5HT (100 μg/kg, i.v.) were given and the MAP responses were evaluated both pre- and post-drug administration. 5HT challenges were repeated 10 minutes after each dose of antagonist. Up to three cumulative doses of the antagonist were given to a single animal.

5HT2 [3] = target: T2, 5HT2; assay: Brain Serotonin (5-HT2) Radioreceptor Assay (3H-ketanserin displacement, rat frontal cortex membranes); format: binding; parameters: dissected from brains obtained from female rats; from tissue; host or cells: frontal cortex of female rats (about 150 g), membrane fragments; conditions: 15 min at 37° C
Description: Brain Serotonin (5-HT2) Radioreceptor Assay
The test objects of this Example were rat frontal cortex membranes. Mebrane fragments were prepared from the frontal cortex dissected from brains obtained from female rats (≈150 g). […] Compound bound to the receptor site was separated from the remaining unbound compound by vacuum filtration. […] Specific binding was determined by the difference between total counts bound and counts bound in the presence of 10^-6 M methysergide.

[4] = test system: Serotonin-Induced Smooth Muscle Contractions (rabbit thoracic aorta); assay: Inhibition of Serotonin-Induced Smooth Muscle Contractions (isolated thoracic aorta strips); format: cell-based; conditions: concentration shifting the serotonin dose curve 10x to the right, 10 min preincubation, read-out: 5-HT-Induced Smooth Muscle Contraction DR10
Description: Inhibition of Serotonin-Induced Smooth Muscle Contractions
The test objects of this Example were canines and rabbits. Rabbits were sacrificed by T-61 injection and the thoracic aorta was removed immediately. The aorta was placed in warmed, oxygenated Krebs-Henseleit buffer. After the tissue was cleaned, a 2-3 mm wide strip was cut helically from each aorta. A strip of approximately 5 cm was suspended in Krebs-Henseleit buffer at 37° C. in a 25 ml tissue bath and the tissues equilibrated at an initial resting tension of 4 g for 90-120 minutes. An initial serotonin dose curve, 0.01-10 μM was then done on each tissue, followed by a 60 minute washout and reequilibration. The test drug was then added for a 10 minute preincubation and another serotonin dose curve was done using 0.01-100 μM.
Results are expressed as DR10 values. This is the concentration of the compound required to shift the serotonin dose curve 10x to the right, i.e., the concentration of antagonist at which the concentration of serotonin required for 50% maximal contraction is increased ten-fold.

[5] = test system: serotonin-induced platelet aggregation; assay: Platelet Aggregation Assay (serotonin-induced); format: cell-based; conditions: human plasma, serotonin 5 μM
Description: Platelet Aggegation Assay
Human blood was collected into tubes containing sodium citrate. The plasma was separated by centrifugation and was used as the source of platelets. Serotonin (5 μM) was used as the agonist to induce platelet aggregation. A control aggregation curve (as measured by the decrease in absorbance in transmitted light) was obtained in the presence of serotonin and in the absence of test compound. The test compound was added to an identical sample in a cuvette for one minute before addition of serotonin to yield the experimental curve.

[6] = test system: Spontaneously Hypertensive Rats (SHR); assay: Antihypertensive Activity in Spontaneously Hypertensive Rats (SHR); format: in vivo, rat; conditions: @ 5 mg/kg p.o., 4 h monitoring
Description: Antihypertensive Activity in Spontaneously Hypertensive Rats (SHR)
Antihypertensive activity was assessed using the following procedure. Adult male SHR were surgically prepared with arterial cannuli under light ether anesthesia and given 60-90 minute post-surgical recovery. Mean arterial pressure (MAP) was continuously monitored via the arterial line. After baseline MAP was recorded, groups of 3-6 SHR received a single dose of drug or vehicle (0.5% methylcellulose) administered by gavage at doses of 1 to 5 mg/kg.MAP was monitored for four hours post-dosing.
Maximal changes in MAP were reported.

[7] = 3H-8-OH DPAT, read-out: Brain 5-HT1 Receptor % displaced (% inhibition)

T2 sequence (P14842 whole entry): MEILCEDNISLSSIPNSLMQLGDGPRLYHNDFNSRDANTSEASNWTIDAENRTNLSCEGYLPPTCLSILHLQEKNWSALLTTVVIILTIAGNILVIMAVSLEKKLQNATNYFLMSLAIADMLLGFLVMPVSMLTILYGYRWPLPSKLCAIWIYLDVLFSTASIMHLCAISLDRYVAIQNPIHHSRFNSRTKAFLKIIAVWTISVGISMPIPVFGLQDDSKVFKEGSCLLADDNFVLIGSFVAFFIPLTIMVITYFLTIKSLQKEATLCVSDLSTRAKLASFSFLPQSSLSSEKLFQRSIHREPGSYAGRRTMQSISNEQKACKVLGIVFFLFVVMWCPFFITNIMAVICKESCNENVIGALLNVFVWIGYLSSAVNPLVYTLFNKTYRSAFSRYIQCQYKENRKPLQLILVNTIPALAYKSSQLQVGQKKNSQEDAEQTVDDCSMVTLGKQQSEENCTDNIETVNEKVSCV

## O=C(c1ccc(F)cc1)C1CCN(CCn2c(=O)[nH]c3sccc3c2=O)CC1 [Example 2, 3-[2-[4-(4-Fluorobenzoyl)piperidin-1-yl]ethyl]thieno[2,3-d]pyrimidine-2,4-dione]
5HT1A receptor; @ 10 μM, 3H-8-OH DPAT, read-out: Brain 5-HT1 Receptor % displaced (% inhibition)
  inhibition at 10 µM: 24%
Serotonin receptors
  Inhibit. of 5-HTP-Head Twitch ED50: 0.26 mg/kg, p.o.
[1]
  Phenylephrine-Induced Pressor Response ED50: < 3.0 mg/kg
5HT2 [2]
  ED50: 0.016 mg/kg
5HT2 [3]
  IC50: 1.6 nM

## O=c1[nH]c2cscc2c(=O)n1CCN1CCC(=C(c2ccc(F)cc2)c2ccc(F)cc2)CC1 [Example 4, 3-[2-[4-[Bis(4-fluorophenyl)methylene]piperidin-1-yl]ethyl]thieno[3,4-d]pyrimidine-2,4-dione]
5HT1A receptor; [7]
  inhibition at 1 µM: 20%
[4]; Oryctolagus cuniculus, 10 min
  IC (10-fold shift): 0.0165 µM
Serotonin receptors
  Inhibit. of 5-HTP-Head Twitch ED50: ≈ 10 mg/kg, p.o.
[1]
  Phenylephrine-Induced Pressor Response ED50: > 10 mg/kg
5HT2 [2]
  ED50: 0.16 mg/kg
[5]; Platelet
  IC50: 5300 nM
5HT2 [3]
  IC50: 2.8 nM

## O=c1[nH]c2ccsc2c(=O)n1CCN1CCC(=C(c2ccc(F)cc2)c2ccc(F)cc2)CC1 [Example 5, 3-[2-[4-[Bis(4-fluorophenyl)methylene]piperidin-1-yl]ethyl]thieno[3,2-d]pyrimidine-2,4-dione]
5HT1A receptor; [7]
  inhibition at 1 µM: 3%
[4]; Oryctolagus cuniculus, 10 min
  IC (10-fold shift): 0.1 µM
Serotonin receptors
  Inhibit. of 5-HTP-Head Twitch ED50: 1.78 mg/kg, p.o.
[1]
  Phenylephrine-Induced Pressor Response ED50: > 10 mg/kg
5HT2 [2]
  ED50: 0.017 mg/kg
[5]; Platelet
  IC50: 1800 nM
5HT2 [3]
  IC50: 7 nM

## O=c1[nH]c2cocc2c(=O)n1CCN1CCC(=C(c2ccc(F)cc2)c2ccc(F)cc2)CC1 [Example 9, 3-[2-[4-[Bis(4-fluorophenyl)methylene]piperidin-1-yl]ethyl]furo[3,4-d]pyrimidine-2,4-dione]
5HT1A receptor; [7]
  inhibition at 1 µM: 12%
[4]; Oryctolagus cuniculus, 10 min
  IC (10-fold shift): 0.01 µM
Serotonin receptors; @ 10 (mg/kg, p.o.)
  Inhibit. of 5-HTP-Head Twitch (result in words): Inact.
[1]
  Phenylephrine-Induced Pressor Response ED50: > 10 mg/kg
5HT2 [2]
  ED50: 0.02 mg/kg
[5]; Platelet
  IC50: 6250 nM
5HT2 [3]
  IC50: 4.2 nM

## O=C(c1ccc(F)cc1)C1CCN(CCn2c(=O)[nH]c3cscc3c2=O)CC1 [Example 10, 3-[2-[4-(4-Fluorobenzoyl)piperidin-1-yl]ethyl]thieno[3,4-d]pyrimidine-2,4-dione]
5HT1A receptor; rat frontal cortex membranes, 3H-8-OH DPAT, pH 7.4, read-out: Brain 5-HT1 Receptor IC50
  IC50: 12000 nM
[4]; Oryctolagus cuniculus, 10 min
  IC (10-fold shift): 0.00524 µM
Serotonin receptors
  Inhibit. of 5-HTP-Head Twitch ED50: 0.63 mg/kg, p.o.
[1]
  Phenylephrine-Induced Pressor Response ED50: < 10 mg/kg
5HT2 [2]
  ED50: 0.888 mg/kg
[5]; Platelet
  IC50: 20 nM
5HT2 [3]
  IC50: 0.33 nM

## CC(=O)n1c(=O)n(CCN2CCC(C(=O)c3ccc(F)cc3)CC2)c(=O)c2cscc21 [Example 11, 1-Acetyl-3-[2-[4-(4-fluorobenzoyl)piperidin-1-yl]ethyl]thieno[3,4-d]pyrimidine-2,4-dione]
5HT1A receptor; [7]
  inhibition at 1 µM: 0%
[1]
  Phenylephrine-Induced Pressor Response ED50: 10.0 mg/kg
5HT2 [2]
  ED50: 0.029 mg/kg
[5]; Platelet
  IC50: 90 nM
5HT2 [3]
  IC50: 12.5 nM

## Cn1c(=O)n(CCN2CCC(C(=O)c3ccc(F)cc3)CC2)c(=O)c2cscc21 [Example 14, 3-[2-[4-(4-Fluorobenzoyl)piperidin-1-yl]ethyl]-1-methylthieno[3,4-d]pyrimidine-2,4-dione]
5HT1A receptor; [7]
  inhibition at 1 µM: 31%
Serotonin receptors
  Inhibit. of 5-HTP-Head Twitch ED50: 2.96 mg/kg, p.o.
[1]
  Phenylephrine-Induced Pressor Response ED50: < 10 mg/kg
5HT2 [2]
  ED50: 0.018 mg/kg
[5]; Platelet
  IC50: 40 nM
5HT2 [3]
  IC50: 7 nM

## O=C(c1ccc(F)cc1)C1CCN(CCn2c(=O)[nH]c3ccccc3c2=O)CC1 [Ketanserin, reference compound]
5HT1A receptor
  IC50: 24500 nM
Serotonin receptors
  Inhibit. of 5-HTP-Head Twitch ED50: 0.67 mg/kg, p.o.
[1]
  Phenylephrine-Induced Pressor Response ED50: 1.08 mg/kg
5HT2 [2]
  5-HT-Induced Pressor Response ED50: 0.013 mg/kg
[5]; Platelet
  IC50: 32 nM
[6]
  Antihypertensive Activity, p.o., % AMAP (maximal change in mean arterial pressure): -33%

## Cc1nc2sccn2c(=O)c1CCN1CCC(=C(c2ccc(F)cc2)c2ccc(F)cc2)CC1 [Ritanserin, reference compound]
[4]
  IC (10-fold shift): 1.0 nM
Serotonin receptors
  Inhibit. of 5-HTP-Head Twitch ED50: 0.32 mg/kg, p.o.
[1]
  Phenylephrine-Induced Pressor Response ED50: 5.36 mg/kg
5HT2 [2]
  5-HT-Induced Pressor Response ED50: 0.008 mg/kg
[5]
  IC50: 1200 nM
